Reference: article PMC5907308, “21st Brazilian Diabetes Society Congress” (Diabetology & Metabolic Syndrome, 2018)

Tests used:
pregnancies = details: general population: 3-4%; no reference given; cited from earlier work
Text: Discussion: In transplanted pregnant women, hypertension and DM increase the risk of prematurity, restricted intrauterine growth (IUGR) and graft loss. […] In addition, there is a higher rate of small newborns for GI. […] As for immunosuppressants, there are few reports. Tacrolimus appears safe (prevalence of congenital malformations: 4-5% ...

[1] = tested on: patients submitted to liver transplantation; format: in vivo, human; details: Tacrolimus 95% CI 1.2–32.5, p = 0.029; PDN 95% CI 2.4–21, 8, p < 0.001
Text: A total of 152 patients were included. […] Comparisons were done with Chi square tests and analysis of independent risk factors with multivariate logistic regression.

[2] = tested on: patients with diabetic dyslipidemia; details: fenofibrate in combination with simvastatin, subgroup with diabetic dyslipidemia; ref [1]; cited from earlier work
[3] = tested on: patient with DM1 and suspected hyporeninemic hypoaldosteronism; assay: Case report: fludrocortisone therapeutic test; format: in vivo, human; details: fludrocortisone 0.2 mg/day
Description: Case presentation: A person, diagnosed with type 1 diabetes mellitus (DM1) for 12 years, presented progressive of walking difficulties 5 years ago, associated with dizziness, weakness, and tachycardia at rest with hypotension. […] Neuropathy Disability Score (NDS) was carried out, presenting 10 out of 10 points, classified as severe impairment. Because of an extremely significant clinical condition, with no evidence of microvascular compromise, hyporeninemic hypoaldosteronism (HH) was investigated. […] Subsequently, the patient was exposed to the exogenous ACTH test, with the administration of ACTH 250mcg intravenous and dosages of serum cortisol and aldosterone at times 0‘, 30‘, 60‘. There was an elevation of serum cortisol to levels above the limit of normality (18 mcg/dL), discarding primary adrenal insufficiency, and aldosterone levels at the lower limit of normal (attached tables). Even tests without confirmation, the use of fludrocortisone 0.2 mg/day was started as a therapeutic test.

patient = assay: Neonatal diabetes, therapeutic test with sulfonylurea, case report; format: in vivo, human; details: oral, gradual elevation, insulin suspended; discharged on 20 mg/day
Description: Case presentation: A patient, presenting hypoactivity, sialorrhea and seizures 2 days ago, was admitted to a university hospital. During hospitalization they were evaluated by neurology that identified a discrete delay in neuropsychomotor development. […] Serologies for toxoplasmosis, rubella and measles negative. History of maternal varicella during gestation. […] Due to the delay in carrying out a genetic study to close the diagnosis, material was collected and sent to the genetic service and prescribed sulfonylurea (glibenclamide) as a therapeutic test. The oral medication was initiated in low doses with gradual elevation, and progressive reduction of the insulin until its suspension. […] They were discharged from the hospital using glibenclamide 20 mg/day. The patient is in outpatient follow-up at the endocrinology department of the João de Barros Barreto University Hospital. Endocrinology work team is still waiting for genetic analysis.

[4] = tested on: patient with diffuse cutaneous leishmaniasis; details: side effect, literature; no reference given; cited from earlier work
[5] = tested on: patient with diffuse cutaneous leishmaniasis; assay: Pentamidine-induced diabetes mellitus, case report; format: in vivo, human
Description: Case report: Patient two, diagnosis of diffuse cutaneous leishmaniasis in treatment since 1995 without therapeutic response after several treatments. Regular follow up with infectology, in maintenance treatment with miltefosine and in treatment with pentamidine every 30 days from January 2017, with a marked improvement of cutaneous lesions. During the follow-up, in consultation in July 2017, they complained of weight loss, polydipsia and nocturia, with serum glycemia of 901 mg/dL. Patient was referred to the hospital where they were diagnosed with a non-ketosis hyperosmolar state, with tests showing serum osmolarity of […] and glycated hemoglobin 10.31%. During hospitalization and after discharge maintained insulin use for glycemic control. Treatment of leishmaniasis with pentamidine was discontinued and will keep following-up with infectology and endocrinology.

[6] = tested on: patient with squamous cell carcinoma of the hypopharynx; assay: Autoimmune diabetes after Nivolumab therapy, case report (A402); format: in vivo, human; details: anti-GAD and anti-ICA positive
Text: Case report: A patient with diagnosis of squamous cell carcinoma of the hypopharynx and pulmonary metastasis 2 years ago, after a failed treatment with conventional chemotherapy and radiotherapy, started a new class of cancer medication called Nivolumab—human immunoglobulin G4 monoclonal antibody. […] Investigation about the cause of the onset of diabetes founded positivity for diabetes antibodies, anti-GAD and anti-ICA, confirming autoimmune diabetes. Patient has been on intensive insulin therapy since then, with difficult glycemic control due to great glycemic variability.

[7] = tested on: patient with metastatic lung adenocarcinoma; assay: New-onset diabetes on Nivolumab, case report (A288); format: in vivo, human
Description: Case report: A patient was started on Nivolumab infusions every 15 days after chemotherapy refractory progressive metastatic lung adenocarcinoma, with no prior history of diabetes. After 4 infusions, they experienced xerostomia, polyuria, polydipsia and asthenia. Upon emergency evaluation, they were started on I.V. insulin after a capillary glycemia of 600 mg/dL. They were discharged home with 10 units of NPH insulin bedtime, with a referral to the endocrinologist. […] Insulin was titrated for a total daily dose of 0.5 UI/kg. […] Nivolumab was withdrawn and no glycemic improvement nor insulin dose reductions were noted.

[8] = tested on: patients with T2DM uncontrolled on oral antidiabetic agents; assay: LixiLan-O, time to glycemic control (Kaplan–Meier), post hoc; format: in vivo, human; details: LL-O
Description: The Kaplan–Meier method was used to estimate time to control, defined as time (days) to first achieve HbA1c < 7% or FPG ≤ 130 mg/dL. […] In addition to lowering FPG via iGlar, iGlarLixi lowers PPG, likely contributing to its greater efficacy in achieving glycemic control vs. iGlar alone. […] Study codes: NCT02058160 and NCT02058147. This is an ENCORE abstract previously presented at ADA 2017. Funding and editorial support provided by Sanofi (Fig. 1)

[9] = tested on: subjects with T2D inadequately controlled on IGlarU100 and metformin; assay: DUAL V 26-week open-label treat-to-target trial; format: in vivo, human
[10] = tested on: elderly patients with T2DM; assay: Pilot randomized trial Ideg vs Iglar-U100 with CGM; format: in vivo, human
Description: Methods: It is a pilot study with ten patients during six weeks, randomized, prospective, controlled and open label trial. Inclusion criteria: T2DM, age over 60 years, A1C from 7 to 10%, use of NPH insulin with or without oral antidiabetic drugs. […] They were evaluated for glucose variability (GV) and HYPOs by continuous glucose monitoring (CGM) after 2 weeks of treatment with either insulin.

In the case of `C=CC[C@@H]1/C=C(\C)C[C@H](C)C[C@H](OC)[C@H]2O[C@@](O)(C(=O)C(=O)N3CCCC[C@H]3C(=O)O[C@H](/C(C)=C/[C@@H]3CC[C@@H](O)[C@H](OC)C3)[C@H](C)[C@@H](O)CC1=O)[C@H](C)C[C@@H]2OC` [Tacrolimus], the “prevalence of congenital malformations” value (pregnancies) is given as 4-5% and the “independent risk factor for PTDM, OR” value [1] is given as 6.3.
In the case of `CC(C)OC(=O)C(C)(C)Oc1ccc(C(=O)c2ccc(Cl)cc2)cc1` [fenofibrate], the “primary outcomes reduced compared to placebo” value [2] is given as “about 30%”.
In the case of `C[C@]12CCC(=O)C=C1CC[C@H]1[C@@H]3CC[C@](O)(C(=O)CO)[C@@]3(C)C[C@H](O)[C@@]12F` [fludrocortisone], the clinical course [3] is reported as “improvement of the blood pressure (BP) and dizziness”.
For `COc1ccc(Cl)cc1C(=O)NCCc1ccc(S(=O)(=O)NC(=O)NC2CCCCC2)cc1` [glibenclamide], the clinical evolution (patient) was “good glycemic control and improved neurological symptoms”.
For `N=C(N)c1ccc(OCCCCCOc2ccc(C(=N)N)cc2)cc1` [pentamidine], the “hyperglycemia reported, cases” value [4] is given as 1-5%, the glycated hemoglobin ([5]; in vivo) is given as 10.31% and the serum osmolarity ([5]; non-ketosis hyperosmolar state) is given as 306 mOsm/L. It also gave a serum glycemia ([5]; pentamidine every 30 days from January 2017, July 2017) of 901 mg/dL.
In the case of Nivolumab, the “presentation after the third cycle” value [6] is reported as “hyperglycemia, polyuria and polydipsia”, the capillary glycemia ([7]; after 4 infusions, every 15 days) is reported as 600 mg/dL and the C-peptide ([7]; in vivo) is reported as 0.34 ng/dL. For the same molecule, the possible adverse event ([7]; in vivo) was “New-onset diabetes presenting with Diabetic Ketoacidosis and low levels of Cpeptide”.
For insulin glargine [Gla-100], the “Days to first HbA1c <7%, median” value [8] was 166.0 days, the “mean fasting SMBG after 26 weeks” value ([9]; NS) was 5.6 mmol/L and the “Mean HbA1c after 26 weeks of treatment” value ([9]; in vivo) was 7.1%. For the same molecule, the “Mean HbA1c, baseline” value ([9]; in vivo) was 8.2%, the “24-h mean glucose, median (minimum–maximum)” value ([10]; CGM after 2 weeks, n = 5 per group, P = 0.84) was 169 (138–193) mg/dL and the “standard deviation from the mean glucose, median (minimum–maximum)” value ([10]; CGM, P = 0.22) was 45 (41–66).
